| SMILES | melting point |
| --- | --- |
| Cn1cc(-c2ccccc2)c(=O)c(-c2cccc(F)c2)c1 | 134 °C |
| C=CCC1(C(=O)N2CCCCC2)c2ccccc2-c2ccccc21 | 64 to 66 °C |
| COC(=O)c1cc(C(=O)CBr)cs1 | 112 to 114 °C |
| CCCCNC(=O)NS(=O)(=O)c1c(C)nn(C)c1OC | 135 to 142 °C |
| CSc1cc(C(F)(F)F)nn1-c1ccc(NC(=O)c2cccnc2F)cc1 | 167 to 168 °C |
| CCCCc1nc(C(=O)C(C)C)c(C#N)[nH]1 | 88 to 89 °C |
| CSCC(C)OC(=O)C(=C1NCCCS1)[N+](=O)[O-] (configuration not stated) | 58 to 60 °C |
| Cc1sc(N)nc1-c1ccc(CCN2CCN(c3cccc4ccccc34)CC2)cc1 | 160 to 165 °C |
| CNC(=O)ON=Cc1nn(-c2c(Cl)cc(C(F)(F)F)cc2Cl)c(N)c1S(C)=O (configuration not stated) | 146 to 147 °C |
| CCOCc1nc2c(N)nc3ccccc3c2n1Cc1ccccc1 | 204 to 205 °C |
| O=C(CCCCl)Nc1nnc(-c2ccc(Br)cc2)s1 | 187 to 189 °C |
| Cc1ccc(C(=C/C=C/C=O)c2ccc(C)cc2)cc1 | 92 to 93 °C |
| Cc1cc(-n2ccnc2)c2cccc(OCc3c(Cl)ccc(S(=O)(=O)N4CCC[C@H]4C(=O)NCCc4cccnc4)c3Cl)c2n1 | 117 °C |
| CN(C)c1c(SC(F)(F)F)c(C#N)nn1-c1c(Cl)cc(C(F)(F)F)cc1Cl | 110 to 111 °C |
| CCCCC(CCCC)(CC(=O)Nc1cccc(OCc2ccc3ccc(F)cc3n2)c1)C(=O)O | 156 to 157 °C |
| O=C(NCCOc1ccc(CC(Oc2cccc(F)c2)C(=O)O)cc1)c1ccc(-c2ccccn2)cc1 (configuration not stated) | 136 to 138 °C |
| c1coc(C2=Nc3ccccc3N3CCc4cccc2c43)c1 | 144 to 146 °C |
| CCCn1nc2c(N)nc3ccccc3c2c1CC(C)(C)NC(=O)C(C)C | 177 to 178 °C |
| CN(C)S(=O)(=O)N1CCN(S(=O)(=O)c2ccc(-c3ccc(CC#N)cc3)s2)[C@@H](C(=O)NO)C1 | 170 to 172 °C |
| O=c1c2cc([N+](=O)[O-])ccc2cc2n1CCCS2(=O)=O | 242 to 244 °C |

| SMILES | melting point |
| --- | --- |
| CCOC(=O)C1CCn2c(cc3ccccc32)C1 (configuration not stated) | 70 to 72 °C |
| CCNC1CCc2c(ccc(OC)c2OC)C1O (configuration not stated) | 125 to 128 °C |
| CC[C@H](C)[C@H](NC(=O)[C@@H]1CCCN1C(=O)OCc1ccccc1)C(=O)NCC(C)C | 87 to 88 °C |
| CSCCC(NC(=O)OCc1ccccc1)C(=O)Nc1nncs1 (racemic) | 155 to 159 °C |
| CCCn1c(=O)c2c(nn3cc[nH]c23)n(Cc2ccccc2)c1=O | 290 to 292 °C |
| Cc1c(NC(=O)C(CSC(=O)c2cccs2)Cc2ccccc2)cccc1C(=O)O (configuration not stated) | 164 to 167 °C |
| O=C(CCNC(=O)NOCCCl)NCC1CC1 | 105 to 106 °C |
| Cc1nc(-n2cnn(Cc3ccc(C(F)(F)F)o3)c2=O)sc1C(=O)NCc1cccnc1 | 124 to 125 °C |
| CS(=O)(=O)c1ccc(-c2nc(C(F)(F)F)[nH]c2-c2ccccc2)cc1 | 228 to 230 °C |
| C#CC(C)(O)C1CCC2C3CC=C4CC(F)CCC4(C)C3CCC21C (configuration not stated) | 213 to 214 °C |
| CC(C)(C)C(O)(C=Cc1ccc(Cl)cc1)Cn1ccnc1 (configuration not stated) | 139 to 141 °C |
| CCc1cc2c(s1)S(=O)(=O)NC2=O | 143 °C |
| Nc1nc2cc(Br)ccn2n1 | 190 to 192 °C |
| O=C(Nc1ccc(-c2ccc(C(=O)O)cc2)cc1)OCC1c2ccccc2-c2ccccc21 | 245 to 248 °C |
| CCSc1nsc(NC(=O)Oc2ccccc2)c1C#N | 223 to 225 °C |
| O=C(N[C@@H](Cc1ccccc1)C(=O)N[C@@H](Cc1cncn1COCc1ccccc1)C(=O)O)C1CCCC1 | 195 to 197 °C |
| Cc1oc(-c2ccccc2)nc1C(N)=O | 154 to 157 °C |
| NCC1(c2cccc(C(F)(F)F)c2)CCN(C(=O)CN2CCN(c3cnccn3)CC2)CC1 | 152 to 153 °C |
| CCCn1nc2c(N)nc3c(c2c1CCCc1cc(C)no1)CCCC3 | 144 to 145 °C |

Second part, the molecule after the results:

| melting point | SMILES |
| --- | --- |
| 126 to 129 °C | FC(F)(F)c1cccc(Oc2cc(Oc3cccc(C(F)(F)F)c3)nc(Br)n2)c1 |
| 63 to 64 °C | CCCCCCCCn1c2cc(OC)ccc2c2ccc(OC)cc21 |
| 282 to 284 °C | Oc1ccc2nc(-c3ccc(O)c(O)c3)oc2c1 |
| 121 to 123 °C | CC(C)(C)OC(=O)NCc1ccc(OCCC2Oc3ccccc3N(Cc3ccccc3Cl)C2=O)cc1 (configuration not stated) |
| 120 to 124 °C | CCOC(=O)c1c(C)nn2c(-c3ccc(Cl)cc3Cl)c(C)ccc12 |
| 65 to 66 °C | CCCOc1ccc(COCCN2CCOCC2)cc1-c1nc2c(CCC)nn(C)c2c(=O)[nH]1 |
| 179 to 187 °C | O=C(O)c1cc(Br)nc(Br)c1 |
| 159 to 161 °C | COc1ccc2c(c1)C(=O)C(Cc1cccc(N)c1)CC2 (configuration not stated) |
| 179 to 182 °C | COc1ccc2cc([C@@H]3CCN(C[C@H](O)COc4cccc5[nH]ccc45)[C@@H](C)C3)sc2c1 |
| 203 to 204 °C | CN1C(=O)C(C(=O)Nc2ccccc2)c2cc3c(cc2S1(=O)=O)CCCC3 (configuration not stated) |
| 163 to 165 °C | COc1cc2c(cc1C(C)=O)sc1ccccc12 |
| 175 to 176 °C | CCCNC(=O)c1nc(C)ccc1C(=O)Nc1c(C#N)ccc(Cl)c1C |
| 191 to 193 °C | Cc1ccccc1OCC(O)CN1CCC2(CC1)CSC1=C(O2)c2ccccc2C(=O)C1=O (configuration not stated) |
| 90 to 93 °C | CC(C)(C)c1cc(C(=O)Cl)cc(C(C)(C)C)c1O |
| 134 to 141 °C | COc1ccc(C2=NN(c3ccc(C4=NNC(=O)CC4C)cc3)C(=O)C3CCCCC23)cc1OC1CCCC1 (configuration not stated) |
| 274 to 276 °C | Cc1cnc2c(-c3nc[nH]n3)c(Cl)ccc2c1 |
| 169 to 170 °C | COc1cc([C@@H]2SC[C@@H](c3cc(OC)c(O)c(OC)c3)S2)cc(OC)c1O (relative stereo) |
| 93 to 95 °C | CCCCCCc1c(C(C)C)nc(C(C)C)c(CO)c1-c1ccc(F)cc1 |
| 166 °C | Cc1ccc(S(=O)(=O)OCC2Cn3c(nc4ccccc43)-c3ccccc3O2)cc1 (configuration not stated) |
| 218 to 219 °C | CS(=O)(=O)c1ccc(Oc2cc(OCc3ccccc3)c3[nH]c(C4=NCC(CC(=O)O)S4)cc3c2)cc1 (configuration not stated) |

| melting point | SMILES |
| --- | --- |
| 136 to 140 °C | CC(C)(C)OC(=O)C[C@@H]1C[C@@H](COc2ccc(-c3ccc(C(=N)NC(=O)OCc4ccccc4)cc3)cc2)NC1=O |
| 167 to 169 °C | CON1CCN2C(=O)C(c3cc(C)ccc3C)C(=O)N2CC1 |
| 231 to 234 °C | CC(C)OC(=O)c1cc(-n2c(=O)[nH]c3c(c2=O)CCC3)c(F)cc1F |
| 179 to 180 °C | COc1ccc(-c2ccc(C(=O)Nc3cccc(CC(=O)O)c3)o2)cc1 |
| 253 to 256 °C | O=C1CCC2=C1C(c1ccc(Br)cc1)C1=C(CCS1)N2 (configuration not stated) |
| 120 to 122 °C | COc1ccc2c(c1)C(C#N)c1ccccc1CO2 (configuration not stated) |
| 93 to 98 °C | CCOC(=O)C(C)c1ccc2cc(O)ccc2c1 (configuration not stated) |
| 290 °C | O=C1Nc2cc(Cl)ccc2C(=O)C1c1coc2ccccc12 (configuration not stated) |
| 100 °C | CC(=C(F)c1ccccc1)c1ccc2c(c1)C(C)(C)CCC2(C)C |
| > 300 °C | COc1ccccc1-n1c(-c2ccc(C=C(C#N)C#N)s2)ccc1-c1ccc(C(C#N)=C(C#N)C#N)s1 |
| 101 to 102 °C | CCOC(=O)C1=Cc2cc(Cl)cc(Br)c2OC1C(F)(F)F (configuration not stated) |
| 175 °C | O=C(O)[C@H]1Oc2ccc(Cl)cc2[C@@H](c2ccccc2)O1 (relative stereo) |
| 162 to 163 °C | Cc1c(NC(=O)c2ccc(-c3ccc(Cl)cc3Cl)cc2F)ccc2cc(CN3CCCC3)cnc12 |
| 89 to 90 °C | COc1ccc(C(C)C(=O)O)cc1[N+](=O)[O-] (configuration not stated) |
| 126 to 128 °C | COc1cccc(C(O)c2ccncc2)c1OC (configuration not stated) |
| 273 to 275 °C | COc1ccc2ncc(NC(=O)C=Cc3cc(OC)c(OC(C)=O)c(OC)c3)c(-c3ccccc3)c2c1 |
| 78 to 80 °C | COc1ccc(Cc2cc3cc(C#N)ccc3o2)cc1 |
| 56 to 60 °C | Cc1cc(Cl)c(-n2nc(C)n(C(F)F)c2=O)cc1OC(C)C(=O)O (configuration not stated) |
| 138 to 140 °C | CCOC(=O)c1c(Cn2cncn2)nc2cc3c(cc2c1-c1ccc(OC)c(OC)c1)OCCO3 |
| 82 °C | COC(=O)CN(CC(COc1ccc(Cl)cc1)OC(C)=O)c1ccccc1 (configuration not stated) |

| melting point | SMILES |
| --- | --- |
| 125 °C | C#Cc1ccc2c(c1)Cc1cc(C#C)ccc1-2 |
| 191 to 192 °C | COc1cc(Nc2nccc(-c3ccc(Cl)nc3)n2)cc(OC)c1OC |
| 262 to 264 °C | CC1COCc2nc3c(N)nc4ccc(O)cc4c3n21 (configuration not stated) |
| 245 to 247 °C | CC(=O)N(C(C)=O)c1cc2c(Nc3ccc(Sc4nccn4C)c(Cl)c3)c(C#N)cnc2cc1N1CCC(N2CCCC2)CC1 |
| 227 to 228 °C | CC1(C)CCC(C)(C)c2cc(C#Cc3ccc(-c4nnn[nH]4)cc3)ccc21 |
| 168 to 170 °C | COC(=O)CN(c1ccc(Cl)cc1C(=O)c1ccccc1F)S(=O)(=O)c1ccc(N)cc1 |
| 102 to 103 °C | CCOC(=O)c1sc(N2C[C@@H](Cc3ccccc3)NC2=O)nc1C |
| 182 to 183 °C | CCCc1nc2c(N)nc3cc(Br)ccc3c2n1CCCON=C(C)C |
| 128 to 129 °C | COc1cc2c(c3c1OC(C)(C)C3)C(c1ccccc1)=NC(C)(C)C2 |
| 205 °C | CCOC(=O)C(C(=O)COC(C)C)C1c2ccccc2C(=O)N1c1ccc2ccc(Cl)nc2n1 (configuration not stated) |
| 110 to 111 °C | COc1ccc(C(=NOC(C)=O)c2cc(F)ccc2F)c(O)c1 |
| 170 to 172 °C | COc1ccc(CCC(=O)Nc2c(C)c(C)c3c(c2C)[C@@H](c2ccc(C)cc2)C(C)(C)O3)cc1 |
| 177 to 178 °C | Cc1cc(C)cc(CNC(=O)C(Cc2c[nH]c3ccccc23)NC(=O)c2ccccc2)c1 (configuration not stated) |
| 221 to 223 °C | Cc1cc(-c2nnc3cc(C(C)(C)C)c(OCc4ncn(C)n4)nn23)no1 |
| 229 to 230 °C | COc1cc2c(cc1OC)=C1C(C#N)SC(=N)N1CC=2 (configuration not stated) |
| 127 to 129 °C | CCc1nc(/C=C/c2cn(-c3ccccc3)nc2OCc2ccc(OCc3nc(-c4cccc([N+](=O)[O-])c4)oc3C)c(OC)c2)cs1 |
| 198 to 200 °C | COc1c(C2CCN(CCCCNC(=O)c3sc(-c4ccc(Cl)cc4)nc3CO)CC2)ccc2c1CCCC2 |
| 215 °C | COC(=O)c1c(C)n(-c2cc(N)c(C)cc2C)cc(Cl)c1=O |

— a melting point compilation (Tetko et al.; mined from patent text by program, amines drawn as free bases though some values may be those of a salt)
